Inconclusive results and toxic doses are left out.
Tested on: L1210 leukemia ip in BDF1 mice, survival T/C
Assay: NCI In Vivo Anticancer Drug Screen. Data for tumor model L1210 Leukemia (intraperitoneal) in B6D2F1 (BDF1) mice
Settings: endpoint: mean survival time, higher = longer survival
Summary of the method: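 Transplantable tumor model; survival measured in treated vs vehicle control mice. Value = treated/control.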

[1] = dose: 100.0 mg/kg/injection, schedule: Q01DX001 (ip), vehicle: Klucel (hydroxypropylcellulose) (HPC)
[2] = dose: 200.0 mg/kg/injection, schedule: Q01DX001 (ip), vehicle: Klucel (hydroxypropylcellulose) (HPC)
[3] = dose: 400.0 mg/kg/injection, schedule: Q01DX001 (ip), vehicle: Klucel (hydroxypropylcellulose) (HPC)
[4] = dose: 100.0 mg/kg/injection, schedule: Q01DX009 (ip), vehicle: saline with Tween-80
[5] = dose: 100.0 mg/kg/injection, schedule: Q04DX003 (ip), vehicle: saline with Tween-80
[6] = dose: 200.0 mg/kg/injection, schedule: Q01DX009 (ip), vehicle: saline with Tween-80
[7] = dose: 200.0 mg/kg/injection, schedule: Q04DX003 (ip), vehicle: saline with Tween-80
[8] = dose: 400.0 mg/kg/injection, schedule: Q01DX009 (ip), vehicle: saline with Tween-80
[9] = dose: 400.0 mg/kg/injection, schedule: Q04DX003 (ip), vehicle: saline with Tween-80
[10] = dose: 50.0 mg/kg/injection, schedule: Q01DX009 (ip), vehicle: Klucel (hydroxypropylcellulose) (HPC)
[11] = dose: 100.0 mg/kg/injection, schedule: Q01DX009 (ip), vehicle: Klucel (hydroxypropylcellulose) (HPC)
[12] = dose: 100.0 mg/kg/injection, schedule: Q04DX003 (ip), vehicle: Klucel (hydroxypropylcellulose) (HPC)
[13] = dose: 200.0 mg/kg/injection, schedule: Q01DX009 (ip), vehicle: Klucel (hydroxypropylcellulose) (HPC)
[14] = dose: 100.0 mg/kg/injection, schedule: Q01DX001 (ip), vehicle: saline
[15] = dose: 200.0 mg/kg/injection, schedule: Q01DX001 (ip), vehicle: saline
[16] = dose: 400.0 mg/kg/injection, schedule: Q01DX001 (ip), vehicle: saline
[17] = dose: 75.0 mg/kg/injection, schedule: Q01DX001 (ip), vehicle: saline
[18] = dose: 50.0 mg/kg/injection, schedule: Q01DX009 (ip), vehicle: saline
[19] = dose: 150.0 mg/kg/injection, schedule: Q01DX001 (ip), vehicle: saline
[20] = dose: 300.0 mg/kg/injection, schedule: Q01DX001 (ip), vehicle: saline

## CCOC(=O)c1cnc(SC)nc1Nc1ccc(Cl)c(Cl)c1
[1]
  T/C: 97 % of control
[2]
  T/C: 96 % of control
[3]
  T/C: 97 % of control

## CCCCCCCCCCCCCCCC(=O)N(CCC#N)c1ccc(N(CCC#N)C(=O)CCCCCCCCCCCCCCC)cc1
dose: 100.0 mg/kg/injection, schedule: Q01DX001 (ip), vehicle: saline with Tween-80
  T/C: 93 % of control
[4]
  T/C: 86 % of control
[5]
  T/C: 104 % of control
dose: 200.0 mg/kg/injection, schedule: Q01DX001 (ip), vehicle: saline with Tween-80
  T/C: 98 % of control
[6]
  T/C: 88 % of control
[7]
  T/C: 94 % of control
dose: 400.0 mg/kg/injection, schedule: Q01DX001 (ip), vehicle: saline with Tween-80
  T/C: 94 % of control
[8]
  T/C: 86 % of control
[9]
  T/C: 93 % of control

## S=c1nc[nH]c2c1[nH]c(=S)n2CCc1cnc[nH]1
dose: 24.0 mg/kg/injection, schedule: Q01DX009 (ip), vehicle: steriod suspending solution
  T/C: 98 % of control
dose: 39.0 mg/kg/injection, schedule: Q01DX009 (ip), vehicle: steriod suspending solution
  T/C: 100 % of control
dose: 65.0 mg/kg/injection, schedule: Q01DX009 (ip), vehicle: steriod suspending solution
  T/C: 102 % of control
dose: 108.0 mg/kg/injection, schedule: Q01DX009 (ip), vehicle: steriod suspending solution
  T/C: 88 % of control
dose: 400.0 mg/kg/injection, schedule: Q01DX001 (ip), vehicle: steriod suspending solution
  T/C: 94 % of control

## CCOc1ccccc1NC(=O)c1ccc(Cl)cc1Cl
[10]
  T/C: 92 % of control
[11]
  T/C: 92 % of control
[12]
  T/C: 89 % of control
[13]
  T/C: 86 % of control

## O=C(CC1CC2CCC1C2)Nc1ccccc1 (centres undefined)
[14]
  T/C: 96 % of control
[15]
  T/C: 111 % of control
[16]
  T/C: 100 % of control

## CSP(N)(N)=O
dose: 5.0 mg/kg/injection, schedule: Q01DX001 (ip), vehicle: saline
  T/C: 97 % of control
dose: 10.0 mg/kg/injection, schedule: Q01DX001 (ip), vehicle: saline
  T/C: 103 % of control

## COc1ccc(-n2c(=O)c(N=Nc3ccccc3Cl)c(O)n(-c3ccccc3C)c2=S)cc1
[1]
  T/C: 97 % of control
[2]
  T/C: 93 % of control
[3]
  T/C: 104 % of control

## C[N+](C)(C)C1CC2CC1C2 (centres undefined)
[17]
  T/C: 97 % of control

## CN(C)CCN1C(=O)CC(c2ccccc2)Sc2ccccc21 (centres undefined)
dose: 3.12 mg/kg/injection, schedule: Q01DX009 (ip), vehicle: saline
  T/C: 98 % of control
dose: 6.25 mg/kg/injection, schedule: Q01DX009 (ip), vehicle: saline
  T/C: 118 % of control
dose: 12.5 mg/kg/injection, schedule: Q01DX009 (ip), vehicle: saline
  T/C: 101 % of control
dose: 25.0 mg/kg/injection, schedule: Q01DX009 (ip), vehicle: saline
  T/C: 107 % of control
dose: 25.0 mg/kg/injection, schedule: Q04DX003 (ip), vehicle: saline
  T/C: 102 % of control
[18]
  T/C: 113 % of control
dose: 50.0 mg/kg/injection, schedule: Q04DX003 (ip), vehicle: saline
  T/C: 113 % of control

## CC(C)OP(=O)(CCCCCCCCCCP(=O)(OC(C)C)OC(C)C)OC(C)C
dose: 100.0 mg/kg/injection, schedule: Q04DX002 (ip), vehicle: saline
  T/C: 113 % of control
dose: 200.0 mg/kg/injection, schedule: Q04DX002 (ip), vehicle: saline
  T/C: 102 % of control
dose: 400.0 mg/kg/injection, schedule: Q04DX002 (ip), vehicle: saline
  T/C: 98 % of control

## Cc1cc2c(C)nc3ccccc3n2c1O
[10]
  T/C: 103 % of control
[11]
  T/C: 103 % of control
[13]
  T/C: 98 % of control

## CCOc1ccc(NC(=O)c2ccccc2Cl)cc1
[11]
  T/C: 98 % of control
[13]
  T/C: 95 % of control
dose: 400.0 mg/kg/injection, schedule: Q01DX009 (ip), vehicle: Klucel (hydroxypropylcellulose) (HPC)
  T/C: 103 % of control

## Cc1nc(-c2ccc(N=Cc3ccc(N(CCCl)CCCl)cc3)cc2)cs1
[18]
  T/C: 101 % of control
[14]
  T/C: 101 % of control
dose: 100.0 mg/kg/injection, schedule: Q01DX009 (ip), vehicle: saline
  T/C: 104 % of control
[15]
  T/C: 90 % of control
dose: 200.0 mg/kg/injection, schedule: Q01DX009 (ip), vehicle: saline
  T/C: 98 % of control
[16]
  T/C: 89 % of control
dose: 400.0 mg/kg/injection, schedule: Q01DX009 (ip), vehicle: saline
  T/C: 102 % of control

## C/C=C/C(=O)OC(=O)/C=C/C
dose: 25.0 mg/kg/injection, schedule: Q04DX003 (ip), vehicle: saline with Tween-80
  T/C: 94 % of control
dose: 50.0 mg/kg/injection, schedule: Q04DX003 (ip), vehicle: saline with Tween-80
  T/C: 98 % of control
[5]
  T/C: 113 % of control
dose: 100.0 mg/kg/injection, schedule: Q04DX003 (ip), vehicle: saline
  T/C: 114 % of control

## Cc1ccc(NC(=O)C(Br)C(Br)C(=O)O)cc1Cl (centres undefined)
[4]
  T/C: 107 % of control
[6]
  T/C: 97 % of control

## Cc1coc(NS(=O)(=O)c2ccc(N=Nc3ccc(O)c4ncccc34)cc2)c1C
[14]
  T/C: 102 % of control
[15]
  T/C: 108 % of control

## CCNC(=O)C1C2C=CC(CC2)C1C(=O)NCC (centres undefined)
[5]
  T/C: 87 % of control
[7]
  T/C: 96 % of control
[9]
  T/C: 96 % of control

## O=C(N=c1cc(-c2ccc(Cl)cc2)ss1)C(Cc1ccccc1)N1C(=O)c2ccccc2C1=O (centres undefined)
dose: 25.0 mg/kg/injection, schedule: Q01DX009 (ip), vehicle: water
  T/C: 102 % of control
dose: 50.0 mg/kg/injection, schedule: Q01DX009 (ip), vehicle: water
  T/C: 102 % of control
dose: 100.0 mg/kg/injection, schedule: Q01DX009 (ip), vehicle: water
  T/C: 96 % of control
dose: 200.0 mg/kg/injection, schedule: Q01DX009 (ip), vehicle: water
  T/C: 95 % of control
dose: 400.0 mg/kg/injection, schedule: Q01DX009 (ip), vehicle: water
  T/C: 87 % of control

## NNS(=O)(=O)c1ccc(N=Nc2ccccc2)cc1
[5]
  T/C: 90 % of control
[7]
  T/C: 93 % of control
[9]
  T/C: 97 % of control

## COc1ccc(Cl)cc1N
[11]
  T/C: 86 % of control
[4]
  T/C: 100 % of control
[12]
  T/C: 93 % of control
[6]
  T/C: 94 % of control
dose: 200.0 mg/kg/injection, schedule: Q04DX003 (ip), vehicle: Klucel (hydroxypropylcellulose) (HPC)
  T/C: 92 % of control
[8]
  T/C: 104 % of control

## N#CCC(=O)[O][Sn]([c]1ccccc1)([c]1ccccc1)[c]1ccccc1
dose: 1.56 mg/kg/injection, schedule: Q01DX009 (ip), vehicle: saline with Tween-80
  T/C: 99 % of control
dose: 3.12 mg/kg/injection, schedule: Q01DX009 (ip), vehicle: saline with Tween-80
  T/C: 92 % of control
dose: 6.25 mg/kg/injection, schedule: Q01DX009 (ip), vehicle: saline with Tween-80
  T/C: 89 % of control

## CNC(=O)c1ccc(NC(=O)Nc2cccc(C3=NCCN3)c2)cc1NC(=O)Nc1cccc(C2=NCCN2)c1
dose: 4.5 mg/kg/injection, schedule: Q01DX Z (ip), vehicle: carboxymethylcellulose (CMC)
  T/C: 97 % of control
dose: 9.0 mg/kg/injection, schedule: Q01DX Z (ip), vehicle: carboxymethylcellulose (CMC)
  T/C: 113 % of control
dose: 36.0 mg/kg/injection, schedule: Q01DX Z (ip), vehicle: carboxymethylcellulose (CMC)
  T/C: 160 % of control

## Nc1nc(SCC(=O)c2ccc(F)cc2)sc1C(=O)c1ccc(F)cc1
dose: 100.0 mg/kg/injection, schedule: Q04DX002 (ip), vehicle: Klucel (hydroxypropylcellulose) (HPC)
  T/C: 100 % of control
dose: 200.0 mg/kg/injection, schedule: Q04DX002 (ip), vehicle: Klucel (hydroxypropylcellulose) (HPC)
  T/C: 112 % of control
dose: 400.0 mg/kg/injection, schedule: Q04DX002 (ip), vehicle: Klucel (hydroxypropylcellulose) (HPC)
  T/C: 100 % of control

## O=C(NC1CCC(CC2CCCCC2)CC1)c1ccccc1 (centres undefined)
[5]
  T/C: 92 % of control
[7]
  T/C: 97 % of control
[9]
  T/C: 113 % of control

## O=c1c2ccccc2[nH]c2cc(-n3nnc4ccccc4c3=O)ccc12
[17]
  T/C: 88 % of control
[19]
  T/C: 88 % of control
[20]
  T/C: 98 % of control

## COC1OC(CO)C(O)C(OC)C1NC(C)=O (centres undefined)
[14]
  T/C: 103 % of control
[15]
  T/C: 106 % of control
[16]
  T/C: 101 % of control

## NC(CSc1ccc([N+](=O)[O-])cc1Cl)C(=O)O (centres undefined)
[17]
  T/C: 100 % of control
[19]
  T/C: 90 % of control
[20]
  T/C: 92 % of control
